Measurements from patent US9932300B2, “N,N′-diarylurea compounds and N,N′-diarylthiourea compounds as inhibitors of translation initiation” (President and Fellows of Harvard College, priority 2009, dated 2018).
Several values for one entry are separate records, joined by “and”; a condition that tells them apart may be missing. Equal entries are not always repeated.

System: eIF2-GTP-Met-tRNAi ternary complex
Assay: Ternary complex assay (dual luciferase, firefly/renilla ratio) in stable KLN-tTA/pBISA-DL(ATF-4) cells; HTS and hit confirmation
Format: cell-based, mouse
Parameters: Activity 10 uM / Activity 2.5 uM / Activity 5 uM: unit not given here
Conditions: for Activity 2.5 uM: compound at 2.5 uM; for Activity 2.5 uM / Activity 10 uM / Activity 5 uM: confirmed hits of the screen (Table 5); for Activity 10 uM: compound at 10 uM; for Activity 5 uM: compound at 5 uM
Source text: For assay development, a bi-directional plasmid was designed in which a common promoter/enhancer complex drives the transcription of firefly luciferase (F-luc) ORF fused to the 5′ untranslated region (UTR) of ATF-4, and of the renilla luciferase (R-luc) ORF fused to a 90-nucleotide 5′ UTR derived from the plasmid (FIG. 6A). Because the tetracycline-regulated transactivator ((tTA), required for driving transcription from this vector) is not normally expressed in the mammalian cells, stable KLN cancer cells were constructed that expressed tTA (KLN-tTA).
The KLN-tTA colonies that drove expression of reporter genes from pBISA-DL plasmid were selected by transient transfection and dual luciferase assay. One of these KLN-tTA cell lines was transfected with the pBISA-DL^(ATF-4) expression vector, stable colonies were selected by dual luciferase assay and expanded. To determine if reduced availability of the eIF2*GTP*Met-tRNAi ternary complex increased the translation of firefly luciferase and decreased translation of renilla luciferase, selected KLN-tTA/pBISA-DL^(AFT-4) colonies were treated with thapsigargin (TG) or tunicamycin (TU), two agents known to cause phosphorylation of eIF2α.
This assay was then adapted for high throughput screening in 96 and 384 well plates. This was done by evaluating the cell density, length of exposure to compounds, DMSO tolerance and optimum firefly and renilla substrate. We then challenged these cells with thapsigargin or DMSO. […] Cell-based assays usually have higher variation than homogeneous in vitro assays due to position effect in the plate, and other variables associated with handling of cells and the plates.
Screening was conducted in 384 well white opaque plates (Nalge Nunc), 100 μl volume RPMI+10% fetal bovine serum. Cells were plated at the sub-confluent density of 10,000 cells/well, and allowed to attach for a period of 16-18 hours at 37° C., 5% CO2. Compounds were added as 1 μl of a 1 mM DMSO stock solution for a final screening concentration of 10 μM, using low-volume tips for transfer (Molecular Bioproducts). Cells were then incubated in the presence of compound for an additional sixteen hours, again at 37° C., 5% CO2. Following incubation 70 μl of the culture medium was removed from each well to allow for reagent addition and plates were allowed to equilibrate to room temperature for thirty minutes. Firefly luciferase reporter activity was then read by the addition of thirty microliters of Dual Glo Luciferase reagent (Promega), followed by one hour incubation at room temperature to allow for adequate signal buildup. Luminescence counting was conducted on a Microbeta Trilux using a 1 second read time. Renilla luciferase reporter activity was measured following addition of 30 μl Stop and Glo Luciferase reagent (Promega) and incubation identical to the one carried out for the firefly luciferase one.
Compound scores were interpreted as firefly luciferase activity divided by renilla luciferase activity, normalized to the plate's DMSO control. […] All data analysis was conducted using the BioAssay HTS software package (CambridgeSoft).
102,709 compounds in the NCI Open Chemical Repository were then screened using this HTS assay. […] Initial hits were confirmed by repeating the same dual luciferase assay in 96 well plates. Briefly, 20,000 cells/well were plated in triplicate for each concentration (10, 5 and 2.5 μM) of the compounds.

With CCN(CC)C(=S)[S-].CCN(CC)C(=S)[S-].[Cu+2] [Compound 1337] the “Activity 2.5 uM” value was 7.15.
With Cc1nc(Nc2cccc(Cl)c2)c2cnn(-c3ccc(Cl)cc3)c2n1 [Compound 1626] the “Activity 2.5 uM” value was 0.79 and the “Activity 10 uM” value was 5.31.
O=C(Nc1ccc(Cl)c(C(F)(F)F)c1)Nc1ccc2nnsc2c1 [Compound 1780] was tested, and the “Active or inactive N,N′-diarylurea (ternary complex assay)” value (designation in figure legend) was “active”.
In the case of c1ccc(NNc2ccc3ccccc3n2)cc1 [Compound 1874], the “Activity 2.5 uM” value is reported as 4.27 and the “Activity 10 uM” value is reported as 3.99.
In the case of O=C(CCl)Nc1cc(Cl)ccc1Cl [Compound 8275], the “Activity 2.5 uM” value is reported as 0.81.
Cc1ccc2c(c1)sc(-c1ccc(N(C)C)cc1)[n+]2C.[Cl-] [Compound 11235] was tested, and the “Activity 2.5 uM” value was 4.88 and 7.3.
For CCCCCCCC[N+](CCCC)(CCCC)CCCC.O=C([O-])CCl [Compound 12134], the “Activity 2.5 uM” value was 8.83.
In the case of CCOC(=O)N(C(=O)c1ccc([As]=O)cc1)C(=O)c1ccc([As]=O)cc1 (stereo not drawn) [Compound 12750], the “Activity 2.5 uM” value is reported as 1.79 and the “Activity 10 uM” value is reported as 4.9.
For CCN(CC)CCCC(C)n1c(SC)nc2cc(Cl)ccc21 (stereo not drawn) [Compound 13268], the “Activity 2.5 uM” value was 1.46 and the “Activity 10 uM” value was 3.18.
In the case of CCCCCCCCC(N)CCCCCCCC.Cl [Compound 14209], the “Activity 2.5 uM” value is reported as 0.85 and the “Activity 10 uM” value is reported as 14.32.
Cc1cc(/C=C/C2CCC3CC(C)CCC3N2CCO)c(C)n1-c1ccccc1 (stereo not drawn) [Compound 14238] was tested, and the “Activity 2.5 uM” value was 1.37 and the “Activity 10 uM” value was 3.02.
In the case of CC(=O)NC1=CC(=O)C=CC1=Nc1ccc(N(C)C)cc1C [Compound 14739], the “Activity 2.5 uM” value is reported as 1.12 and the “Activity 10 uM” value is reported as 4.06.
With Cc1c(Cl)ccc2c(C(O)CNCc3ccccc3)cc(-c3ccc(Cl)cc3)nc12 (stereo not drawn) [Compound 14755] the “Activity 2.5 uM” value was 0.68 and the “Activity 10 uM” value was 6.63.
In the case of CC(C)Nc1nc(NC(C)C)c2cnn(-c3ccccc3)c2n1 [Compound 19143], the “Activity 2.5 uM” value is reported as 1.72 and the “Activity 10 uM” value is reported as 3.2.
In the case of CCCCCCCCCCCCCCCCCC[n+]1ccc(C(C)CC)cc1.[Cl-] (stereo not drawn) [Compound 19763], the “Activity 2.5 uM” value is reported as 4.63 and the “Activity 10 uM” value is reported as 13.29.
For CCO[C@@H]([CH2][Hg][Cl])[C@](C)([CH2][Hg][Cl])OCC [Compound 21293], the “Activity 2.5 uM” value was 3.16.
With CN(C)c1ccc(C2(Cl)c3ccccc3N(Cc3ccccc3)c3ccccc32)cc1.Cl [Compound 21533] the “Activity 2.5 uM” value was 2.03 and the “Activity 10 uM” value was 8.88.
For O=C(C=Cc1ccc([N+](=O)[O-])o1)C=Cc1ccc([N+](=O)[O-])o1 [Compound 21620], the “Activity 2.5 uM” value was 0.74 and the “Activity 10 uM” value was 16.28.
c1ccc(-c2ccc(-c3cnc(-c4ccc(-c5ccccc5)cc4)o3)cc2)cc1 [Compound 24863] was tested, and the “Activity 2.5 uM” value was 1.87 and the “Activity 10 uM” value was 3.22.
For CCCCN(CCCC)CCC(O)(c1ccc(OC)c2ccccc12)C(O)(CCN(CCCC)CCCC)c1ccc(OC)c2ccccc12.Cl (stereo not drawn) [Compound 26101], the “Activity 2.5 uM” value was 0.78 and the “Activity 10 uM” value was 4.13.
For Br.CCC1=C(C)/C(=C/c2[nH]c(C)c(CC)c2C)N=C1C [Compound 26672], the “Activity 2.5 uM” value was 1.44 and the “Activity 10 uM” value was 57.61.
In the case of CCCCCCCCCCCCCCCC[N+](C)(C)CCCCCC(=O)OC.[Br-] [Compound 26847], the “Activity 2.5 uM” value is reported as 1.83 and the “Activity 10 uM” value is reported as 8.15.
With O=C1C=C(N2CC2)C(=O)C(N2CC2)=C1N1CC1 [Compound 29215] the “Activity 2.5 uM” value was 36.4.
In the case of Clc1ccc(-c2nc(-c3ccccc3)[nH]c2-c2ccc(Cl)c(Cl)c2)cc1Cl [Compound 30759], the “Activity 2.5 uM” value is reported as 0.88 and the “Activity 10 uM” value is reported as 6.9.
For COc1ccc2nc3cc(Cl)ccc3c(NCCCCN(C)C)c2c1.Cl [Compound 32929], the “Activity 2.5 uM” value was 0.35 and the “Activity 10 uM” value was 5.76.
In the case of Cc1cc[n+](C2CCC3(C)C(=CCC4C3CCC3(C)C(C(C)CCCC(C)C)CCC43)C2)cc1.Cc1ccc(S(=O)(=O)[O-])cc1 (stereo not drawn) [Compound 32994], the “Activity 2.5 uM” value is reported as 2.83 and the “Activity 10 uM” value is reported as 6.52.
In the case of CC(C)CCCC(C)C1CCC2C3CC=C4CC([n+]5cccc6ccccc65)CCC4(C)C3CCC12C.Cc1ccc(S(=O)(=O)[O-])cc1 (stereo not drawn) [Compound 32999], the “Activity 2.5 uM” value is reported as 2.41 and the “Activity 10 uM” value is reported as 6.87.
COc1ccc2nc(CCc3ccccc3)ccc2c1 [Compound 35424] was tested, and the “Activity 2.5 uM” value was 2.55 and the “Activity 10 uM” value was 3.07.
CN1c2ccccc2C(c2ccccc2)c2ccc(Nc3ccccc3)cc21.Cl (stereo not drawn) [Compound 35730] was tested, and the “Activity 2.5 uM” value was 5.35 and the “Activity 10 uM” value was 6.76.
In the case of Cc1ccc(C(CN(C)C)C(=O)c2ccccc2)cc1C.Cl (stereo not drawn) [Compound 36684], the “Activity 2.5 uM” value is reported as 0.76 and the “Activity 10 uM” value is reported as 4.2.
With O=C1c2ccccc2C(=O)C2CC(c3ccccc3)=CCC12 (stereo not drawn) [Compound 38062] the “Activity 2.5 uM” value was 2.61 and the “Activity 10 uM” value was 5.58.
With CC1=CC(=O)C(C(C)C)=CC1=Nc1ccc(N(C)C)cc1 [Compound 39901] the “Activity 2.5 uM” value was 1.41 and the “Activity 10 uM” value was 4.1.
In the case of CC(=O)Nc1ccccc1[As](O[As](c1ccccc1)c1ccccc1NC(C)=O)c1ccccc1 (stereo not drawn) [Compound 42108], the “Activity 10 uM” value is reported as 3.7.
With O=C(Nc1ccc2ccccc2c1)c1cc2ccccc2cc1O [Compound 42112] the “Activity 2.5 uM” value was 3.76 and the “Activity 10 uM” value was 3.76.
CCN1/C(=C/c2cc(C)nc(-c3ccccc3)[n+]2C)C=Cc2ccccc21.[Cl-] [Compound 43683] was tested, and the “Activity 2.5 uM” value was 3.73 and the “Activity 10 uM” value was 5.26.
In the case of CC(=O)Nc1cc(OC(C)=O)c2ccccc2c1OC(C)=O [Compound 45171], the “Activity 2.5 uM” value is reported as 3.08.
With COc1ccc2c3c(ccc2c1)[C@@H]1C/C(=C(\OC(C)=O)C(F)(F)F)C(=O)[C@@]1(C)CC3 [Compound 45226] the “Activity 2.5 uM” value was 3.03 and the “Activity 10 uM” value was 7.27.
With CC(=O)OC1CCC2(C)C3CCC4(C)C(CCC4(Br)C(=O)CBr)C3CC(Br)C2(Br)C1 (stereo not drawn) [Compound 45884] the “Activity 2.5 uM” value was 0.47 and the “Activity 10 uM” value was 16.23.
With Oc1cccc(-c2ccc(-c3ccccc3)cc2)c1 [Compound 47145] the “Activity 2.5 uM” value was 3.4 and the “Activity 10 uM” value was 5.16.
N#C/C(=C(\c1ccccc1)c1ccccn1)c1ccccc1 [Compound 50915] was tested, and the “Activity 2.5 uM” value was 1.11 and the “Activity 10 uM” value was 7.81.
With O=Nc1c(O)ccc2ccccc12.[Fe].[Na+] [Compound 51522] the “Activity 2.5 uM” value was 1.66 and the “Activity 10 uM” value was 10.99.
Cc1cc2c(C(C)C)c(O)c(O)c(C=Nc3cc(C(F)(F)F)ccc3Cl)c2c(O)c1-c1c(C)cc2c(C(C)C)c(O)c(O)c(C=Nc3cc(C(F)(F)F)ccc3Cl)c2c1O [Compound 52531] was tested, and the “Activity 2.5 uM” value was 0.8 and the “Activity 10 uM” value was 5.18.
For O=C(Nc1ccc(Cl)cc1)C(Cl)C(Cl)c1ccccc1 (stereo not drawn) [Compound 54895], the “Activity 5 uM” value was 4.288 and the “Activity 10 uM” value was 4.975.
O=C(/C=C/c1ccc(Cl)cc1)CC(Cl)c1ccc(Cl)cc1 (stereo not drawn) [Compound 54905] was tested, and the “Activity 5 uM” value was 11.56 and the “Activity 10 uM” value was 16.011.
With CCCCCCCCCCCCCCCC[N+]1(C)CC2CCCCC2C1 (stereo not drawn) [Compound 55237] the “Activity 5 uM” value was 3.4 and the “Activity 10 uM” value was 6.6.
In the case of CCCCCCCCCCCCCCCC[N+]1(CCCCCCCCCC)CC2CCCCC2C1.[I-] (stereo not drawn) [Compound 55240], the “Activity 5 uM” value is reported as 4.2 and the “Activity 10 uM” value is reported as 5.2.
In the case of Cc1ccc(-c2cc(-c3ccccc3)[s+]c3ccc(C)cc23)cc1 [Compound 55867], the “Activity 5 uM” value is reported as 1.1 and the “Activity 10 uM” value is reported as 3.2.
C[N+](C)=C1C=CC(=C2C=C(c3ccccc3)Oc3ccccc32)C=C1 [Compound 55869] was tested, and the “Activity 5 uM” value was 13.24 and the “Activity 10 uM” value was 13.613.
With O=C(C[Si](CC(=O)c1cccc(C(F)(F)F)c1)CC(=O)c1cccc(C(F)(F)F)c1)c1cccc(C(F)(F)F)c1 [Compound 55879] the “Activity 5 uM” value was 1.7 and the “Activity 10 uM” value was 3.8.
In the case of Cc1cc(C(O)(c2ccc(N)cc2)c2ccc(N)cc2)ccc1N.Nc1ccc(C(O)(c2ccc(N)cc2)c2ccc(N)cc2)cc1 [Compound 56345], the “Activity 5 uM” value is reported as 3.4 and the “Activity 10 uM” value is reported as 3.64.
CCN(CCO)c1ccc(N=Nc2ccc([N+](=O)[O-])cc2)cc1 [Compound 57019] was tested, and the “Activity 5 uM” value was 5.388 and the “Activity 10 uM” value was 5.441.
